Legend:
[1] = tested on: isolated rat soleus muscle; experiment: Ex vivo model of residual muscle force (fatigue) in isolated rat soleus muscle after sodium overload by high NaCl (200 mM) buffer; design: species or system rat (female Sprague Dawley); settings: for residual contractile force compared with baseline control: drug concentrations of 30 to 500 nM, added 10 min before 30 min in 200 mM NaCl buffer, then stimulation in physiological NaCl buffer, 30 °C, pH 7.4, controls without inhibitor 10% to 20%; for effect on rat soleus muscle force decline: high NaCl (200 mM) protocol, result in words
Description: The claim of this patent is that NHE1 inhibitors can improve disturbed body function and symptoms of ME/CFS, as an example of diseases associated with chronic fatigue (DACF). Muscular fatigue and loss of force (e.g., loss of handgrip strength) is a hallmark in ME/CFS patients. A main target of NHE1 inhibition is the skeletal muscle whose energetic function is deeply disturbed in ME/CFS and which is presumed to be very important in the symptomatology of ME/CFS. NHE1 activity plays a key role in the development of the disturbances by a rise in intramuscular sodium that finally leads to calcium overload. The latter causes a deep functional energetic disturbance or damage. The isolated rat muscle either soleus muscle or extensor digitorum longus muscle is a well-characterized and well-validated model for the study of the function of ion exchangers. The isolated rat soleus muscle is particularly appropriate for experiments ex vivo as it is very thin so that there is no need for blood supply. […] In this experimental setting, a high NaCl concentration buffer causes sodium influx to disturb and decrease excitability and to disturb calcium homeostasis to subsequently reduce muscle force. Inhibition of the NHE1, which exchanges one proton for the uptake of one sodium ion, reduces sodium entry and overload. Prevention or diminution of a loss of muscular force in this procedure indicates effective inhibition of NHE1 by a test compound with the described mode of action of NHE1-inhibition.
The decline in force in the soleus muscle can be considered as muscular fatigue and related to the loss of hand grip muscular strength in ME/CFS patients. The described ex vivo model is suited for testing the effect of NHE1 inhibitors and in particular their effect on force generation disturbed by mechanisms that worsen excitability or the energetic situation or calcium homeostasis via the sodium-calcium-exchanger. High NaCl in a buffer (200 mM) is used to cause intracellular sodium loading leading to a decline in contractile force.
The resulting decline in muscular force is considered as muscular fatigue. In the absence of electrical stimulation avoiding sodium entry by sodium channels the sodium influx during high NaCl exposure is due to the NHE1. Inhibition of NHE1 can prevent sodium overload and a decline in muscular force and fatigue.
Muscle preparation and incubation: Female Sprague Dawley rats of 5 weeks of age are used. After isoflurane anesthesia and cervical dislocation the intact soleus muscles of the animals is dissected. […]
Force measurement: The experimental set-up for force measurements allows for the simultaneous recordings from 6 muscles in separate incubation chambers in parallel. Force is recorded and stored with a Notocord HEM data acquisition system. […]

[2] = tested on: myocardial infarction and dystrophic cardiomyopathy including DMD; settings: animal models; Ghaleh et al. doi: 10.1016/j.ijcard.2020.03.031; cited from earlier work
Ca2^+ and Na+ overload = settings: preclinical; Chahine et al. doi: 10.1016/j.yjmcc.2005.01.003; Bkaily and Jacques doi: 10.1139/cjpp-2017-0265; cited from earlier work

## CC(C)c1ccc(C(=O)NC(=N)N)cc1S(C)(=O)=O [Cariporide]
[1]
  residual contractile force compared with baseline control: 50-70%
  effect on rat soleus muscle force decline: diminished the loss of force
[2]
  cardioprotective effects: cardioprotective effects
Ca2^+ and Na+ overload
  effect in preventing the deleterious effects of Ca2^+ and Na+ overload: beneficial effects

## Cc1cc(S(C)(=O)=O)c(S(C)(=O)=O)cc1C(=O)N=C(N)N [Rimeporide, N-(4,5-bismethanesulfonyl-2-methylbenzoyl)guanidine]
[1]
  residual contractile force compared with baseline control: 50-70%
  effect on rat soleus muscle force decline: diminished the loss of force
[2]
  cardioprotective effects: cardioprotective effects
Ca2^+ and Na+ overload
  effect in preventing the deleterious effects of Ca2^+ and Na+ overload: beneficial effects
